Experimental data taken from patent US10670605B2, “Cysteine reactive probes and uses thereof” (The Scripps Research Institute, priority 2015, dated 2020).

What was measured:
Assay in all cases: Competitive isoTOP-ABPP, cell lysates
Assay type in all cases: binding
SMARCC2 C145 (Q8TAQ2) = SMARCC2 C145 (Q8TAQ2) (Homo sapiens, UniProt Q8TAQ2); conditions: for isoTOP-ABPP reactivity ratio, Q8TAQ2_C145: 500 μm
STAT3 C259 (P40763) = STAT3 C259 (P40763) (Homo sapiens, UniProt P40763); conditions: for isoTOP-ABPP reactivity ratio, P40763_C259: 500 μm, in-vitro_ramos
PRMT1 C109 (Q99873) = PRMT1 C109 (Q99873) (Homo sapiens, UniProt Q99873); conditions: for isoTOP-ABPP reactivity ratio, Q99873_C109: 500 μm
PDIA6 C190 (Q15084) = target: T1, PDIA6 C190 (Q15084) (Homo sapiens, UniProt Q15084); conditions: for isoTOP-ABPP reactivity ratio, Q15084_C190: 500 μm
T1 sequence (Q15084 20-440): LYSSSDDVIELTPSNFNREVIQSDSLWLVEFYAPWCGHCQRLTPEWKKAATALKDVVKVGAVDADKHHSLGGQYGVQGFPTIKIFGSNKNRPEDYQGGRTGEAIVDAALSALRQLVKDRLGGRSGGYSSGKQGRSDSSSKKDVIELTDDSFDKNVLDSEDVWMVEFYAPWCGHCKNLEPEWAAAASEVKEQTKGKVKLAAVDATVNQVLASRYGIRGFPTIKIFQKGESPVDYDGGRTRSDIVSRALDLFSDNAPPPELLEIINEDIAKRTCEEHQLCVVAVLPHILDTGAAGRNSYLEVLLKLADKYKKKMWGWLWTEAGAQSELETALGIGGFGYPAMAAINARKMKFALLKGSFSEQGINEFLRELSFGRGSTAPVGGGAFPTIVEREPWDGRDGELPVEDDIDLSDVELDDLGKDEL

ACAT1 C119 (P24752) = target: T2, ACAT1 C119 (P24752) (Homo sapiens, UniProt P24752); conditions: for isoTOP-ABPP reactivity ratio, P24752_C119: 500 μm
T2 sequence (P24752 34-427): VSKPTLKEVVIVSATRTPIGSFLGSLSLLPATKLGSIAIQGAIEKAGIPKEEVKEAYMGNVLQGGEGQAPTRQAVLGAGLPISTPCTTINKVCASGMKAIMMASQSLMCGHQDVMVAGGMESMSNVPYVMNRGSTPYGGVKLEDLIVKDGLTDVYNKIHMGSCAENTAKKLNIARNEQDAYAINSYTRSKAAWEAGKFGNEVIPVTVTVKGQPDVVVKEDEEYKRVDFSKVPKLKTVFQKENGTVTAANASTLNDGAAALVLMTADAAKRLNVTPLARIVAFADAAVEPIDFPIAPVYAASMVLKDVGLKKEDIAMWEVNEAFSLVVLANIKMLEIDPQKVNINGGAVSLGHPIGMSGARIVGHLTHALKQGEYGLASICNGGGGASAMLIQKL

ACAT1 C413 (P24752) = target: T3, ACAT1 C413 (P24752) (Homo sapiens, UniProt P24752); conditions: for isoTOP-ABPP reactivity ratio, P24752_C413: 500 μm
T3 sequence (P24752 34-427): T2 sequence (P24752 34-427)

UBE2S C118 (Q16763) = target: T4, UBE2S C118 (Q16763) (Homo sapiens, UniProt Q16763)
T4 sequence (Q16763 1-222): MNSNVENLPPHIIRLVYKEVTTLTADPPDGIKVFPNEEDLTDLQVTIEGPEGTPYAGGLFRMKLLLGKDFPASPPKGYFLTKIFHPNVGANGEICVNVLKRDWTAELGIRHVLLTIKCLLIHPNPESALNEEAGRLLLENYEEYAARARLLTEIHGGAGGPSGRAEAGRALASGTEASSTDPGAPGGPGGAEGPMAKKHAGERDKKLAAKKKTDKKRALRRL

STAT3 C259 (P40763), sequence (P40763 whole entry): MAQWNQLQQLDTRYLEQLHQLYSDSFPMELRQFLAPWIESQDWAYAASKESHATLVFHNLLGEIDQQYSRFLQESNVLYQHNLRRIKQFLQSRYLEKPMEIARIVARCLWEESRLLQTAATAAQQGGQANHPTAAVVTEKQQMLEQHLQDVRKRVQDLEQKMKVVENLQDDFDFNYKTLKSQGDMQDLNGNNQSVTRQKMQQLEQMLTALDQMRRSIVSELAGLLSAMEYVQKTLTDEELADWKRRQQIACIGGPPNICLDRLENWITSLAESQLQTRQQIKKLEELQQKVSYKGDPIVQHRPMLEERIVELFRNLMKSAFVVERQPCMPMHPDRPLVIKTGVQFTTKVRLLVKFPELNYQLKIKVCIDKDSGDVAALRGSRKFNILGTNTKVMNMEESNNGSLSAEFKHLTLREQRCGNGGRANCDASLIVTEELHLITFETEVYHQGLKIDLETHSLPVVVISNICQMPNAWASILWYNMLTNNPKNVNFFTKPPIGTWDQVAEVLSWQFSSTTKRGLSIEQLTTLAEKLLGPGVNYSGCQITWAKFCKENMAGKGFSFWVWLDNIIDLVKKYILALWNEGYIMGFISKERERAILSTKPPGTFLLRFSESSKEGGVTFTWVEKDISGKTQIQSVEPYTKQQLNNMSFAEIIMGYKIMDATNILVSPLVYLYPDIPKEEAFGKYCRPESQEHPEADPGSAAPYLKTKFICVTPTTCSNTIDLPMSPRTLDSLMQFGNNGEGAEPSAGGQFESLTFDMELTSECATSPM
SMARCC2 C145 (Q8TAQ2), sequence (Q8TAQ2 whole entry): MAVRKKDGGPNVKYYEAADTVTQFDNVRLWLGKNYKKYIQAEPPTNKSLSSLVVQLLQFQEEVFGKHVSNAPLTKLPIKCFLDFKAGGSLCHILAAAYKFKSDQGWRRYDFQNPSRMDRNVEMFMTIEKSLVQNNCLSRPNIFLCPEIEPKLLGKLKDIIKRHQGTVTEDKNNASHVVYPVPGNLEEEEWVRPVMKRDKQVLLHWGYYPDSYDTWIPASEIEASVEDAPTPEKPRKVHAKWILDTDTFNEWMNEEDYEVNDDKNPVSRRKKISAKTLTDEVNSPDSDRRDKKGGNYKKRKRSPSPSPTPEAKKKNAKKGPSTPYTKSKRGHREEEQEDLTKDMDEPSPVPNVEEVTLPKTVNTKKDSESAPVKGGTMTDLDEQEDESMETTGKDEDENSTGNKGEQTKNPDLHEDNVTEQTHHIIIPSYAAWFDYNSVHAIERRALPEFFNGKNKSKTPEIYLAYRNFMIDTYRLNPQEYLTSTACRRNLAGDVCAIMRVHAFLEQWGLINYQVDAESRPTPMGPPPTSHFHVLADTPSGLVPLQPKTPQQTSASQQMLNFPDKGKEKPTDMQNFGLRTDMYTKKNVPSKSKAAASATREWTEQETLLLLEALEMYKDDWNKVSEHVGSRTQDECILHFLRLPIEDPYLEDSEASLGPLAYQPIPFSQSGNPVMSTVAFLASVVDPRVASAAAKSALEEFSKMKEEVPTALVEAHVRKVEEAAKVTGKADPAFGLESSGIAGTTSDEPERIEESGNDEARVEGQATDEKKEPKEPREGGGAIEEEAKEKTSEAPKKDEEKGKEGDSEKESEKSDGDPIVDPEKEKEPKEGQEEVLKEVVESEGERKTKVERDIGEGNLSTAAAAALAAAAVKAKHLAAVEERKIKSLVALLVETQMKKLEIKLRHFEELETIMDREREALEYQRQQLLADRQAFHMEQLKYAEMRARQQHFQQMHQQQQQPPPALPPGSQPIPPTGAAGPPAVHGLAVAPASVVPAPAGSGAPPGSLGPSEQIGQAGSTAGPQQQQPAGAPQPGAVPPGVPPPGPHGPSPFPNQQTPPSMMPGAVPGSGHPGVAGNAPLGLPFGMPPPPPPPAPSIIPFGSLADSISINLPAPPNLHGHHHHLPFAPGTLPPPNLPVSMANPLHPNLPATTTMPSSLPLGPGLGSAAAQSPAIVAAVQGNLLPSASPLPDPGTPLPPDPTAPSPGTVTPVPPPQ
PRMT1 C109 (Q99873), sequence (Q99873 whole entry): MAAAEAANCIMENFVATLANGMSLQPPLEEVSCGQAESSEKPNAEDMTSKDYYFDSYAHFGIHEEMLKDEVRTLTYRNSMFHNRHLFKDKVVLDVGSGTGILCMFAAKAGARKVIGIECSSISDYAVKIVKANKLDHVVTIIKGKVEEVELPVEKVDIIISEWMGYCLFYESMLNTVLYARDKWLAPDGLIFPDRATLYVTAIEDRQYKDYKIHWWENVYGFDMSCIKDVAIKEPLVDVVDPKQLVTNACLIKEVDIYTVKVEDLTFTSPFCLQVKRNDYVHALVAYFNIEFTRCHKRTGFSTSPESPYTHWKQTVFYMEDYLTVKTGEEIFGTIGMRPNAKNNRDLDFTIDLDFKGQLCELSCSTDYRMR

SMILES | isoTOP-ABPP ratio (reactivity profile), Q99873_C109 (PRMT1 C109 (Q99873); 500 μm in-vitro ramos) | isoTOP-ABPP ratio (reactivity profile), P24752_C119 (ACAT1 C119 (P24752); 500 μm in-vitro ramos) | isoTOP-ABPP ratio (reactivity profile), P24752_C413 (ACAT1 C413 (P24752); 500 μm in-vitro ramos) | isoTOP-ABPP reactivity ratio, Q99873_C109 (PRMT1 C109 (Q99873); in-vitro_ramos) | isoTOP-ABPP reactivity ratio, P24752_C119 (ACAT1 C119 (P24752); in-vitro_ramos) | isoTOP-ABPP reactivity ratio, P24752_C413 (ACAT1 C413 (P24752); in-vitro_ramos) | isoTOP-ABPP reactivity ratio, Q99873_C109 (PRMT1 C109 (Q99873); in-vitro_ramos_231) | isoTOP-ABPP reactivity ratio, Q15084_C190 (PDIA6 C190 (Q15084); in-vitro_ramos_231) | isoTOP-ABPP reactivity ratio, P24752_C119 (ACAT1 C119 (P24752); in-vitro_ramos_231) | isoTOP-ABPP reactivity ratio, P40763_C259 (STAT3 C259 (P40763)) | other results
O=C(CCl)N1CCN(CC(=O)N2CCOCC2)CC1 [compound 29] | 0.9 | 0.6 | 0.7 | – | – | – | – | – | – | – | isoTOP-ABPP ratio (reactivity profile), Q8TAQ2_C145 (SMARCC2 C145 (Q8TAQ2); 500 μm in-vitro ramos_231): 1.0; isoTOP-ABPP ratio (reactivity profile), P40763_C259 (STAT3 C259 (P40763); 500 μm in-vitro ramos_231): 1.5; isoTOP-ABPP ratio (reactivity profile), Q99873_C109 (PRMT1 C109 (Q99873); 500 μm in-vitro ramos_231): 1.0; isoTOP-ABPP ratio (reactivity profile), Q15084_C190 (PDIA6 C190 (Q15084); 500 μm in-vitro ramos_231): 1.2; isoTOP-ABPP ratio (reactivity profile), P24752_C119 (ACAT1 C119 (P24752); 500 μm in-vitro ramos_231): 1.3; isoTOP-ABPP ratio (reactivity profile), P24752_C413 (ACAT1 C413 (P24752); 500 μm in-vitro ramos_231): 1.3
CCN(CC)c1ccc(S(N)(=O)=O)cc1NC(=O)CCl [compound 30] | 1.1 | 0.7 | 1.1 | 1.8 | 0.9 | 1.9 | – | – | – | – | isoTOP-ABPP ratio (reactivity profile), Q8TAQ2_C145 (SMARCC2 C145 (Q8TAQ2); 500 μm in-vitro ramos): 1.1; isoTOP-ABPP reactivity ratio, Q8TAQ2_C145 (SMARCC2 C145 (Q8TAQ2); in-vitro_ramos): 1.5; isoTOP-ABPP ratio (reactivity profile), Q16763_C118 (UBE2S C118 (Q16763); 500 μm in-vitro ramos): 0.7; isoTOP-ABPP reactivity ratio, Q16763_C118 (UBE2S C118 (Q16763); 500 μm, in-vitro_ramos): 1.1; isoTOP-ABPP ratio (reactivity profile), Q15084_C190 (PDIA6 C190 (Q15084); 500 μm in-vitro ramos): 2.3
O=C(CCl)N(Cc1ccc(F)cc1)C12CC3CC(CC(C3)C1)C2 [compound 34] | – | – | – | 1.1 | – | 1.3 | 0.8 | 0.9 | 0.8 | – | isoTOP-ABPP reactivity ratio, P24752_C413 (ACAT1 C413 (P24752); in-vitro_ramos_231): 0.9
O=C(CCl)Nc1ccccc1C1CCCCCC1 [compound 35] | – | – | – | 1.0 | 1.0 | 1.3 | 0.8 | 0.9 | 0.9 | 1.1 | isoTOP-ABPP reactivity ratio, Q8TAQ2_C145 (SMARCC2 C145 (Q8TAQ2); in-vitro_ramos_231): 0.9
C=CC(=O)N1CCC(c2noc3ccc(F)cc23)CC1 [compound 37] | – | – | – | 1.0 | 0.8 | 0.9 | – | – | – | 0.9 | isoTOP-ABPP reactivity ratio, Q15084_C190 (PDIA6 C190 (Q15084); in-vitro_ramos): 1.1
